Here are results for two molecules from patent US20260151492A1 (priority 2022, published 2026).

Assay [1] concerns the target T1, Sigma 2 (Homo sapiens, UniProt Q5BJF2). The settings on record: literature (Pergolizi, 2023; Bonaventura, 2021); cited from earlier work.
A further assay has as its system Mecp2-null mice. Particulars: cited from earlier work.
For assay [2], the target named is T2, DRD2L (Homo sapiens, UniProt P14416). Particulars: statement on ketamine, no own data shown; cited from earlier work.
A further assay deals with NMDAR 1A/2B (Homo sapiens, UniProt Q05586+Q13224). The experiment in a line: NMDAR 1A/2B antagonist (ion channel blocker) assay. The format is cell-based.
Assay [3] concerns the target T2, DRD2L. The experiment in a line: D2L human dopamine GPCR cell based agonist cAMP assay. (In general: Changes in cAMP serve as a functional read-out for many G protein-coupled receptors.)
Assay [4] concerns the target T1, Sigma 2. The assay can be described thus: Sigma 2 binding assay.
Another assay concerns the target Opiate k (Homo sapiens, UniProt P41145). The assay can be described thus: Opiate k binding assay.
A further assay deals with Opiate μ (Homo sapiens, UniProt P35372). The experiment in a line: Opiate μ binding assay.

Where two headings read alike, the source gives them in different places.

Sequence of Opiate k (P41145 whole entry): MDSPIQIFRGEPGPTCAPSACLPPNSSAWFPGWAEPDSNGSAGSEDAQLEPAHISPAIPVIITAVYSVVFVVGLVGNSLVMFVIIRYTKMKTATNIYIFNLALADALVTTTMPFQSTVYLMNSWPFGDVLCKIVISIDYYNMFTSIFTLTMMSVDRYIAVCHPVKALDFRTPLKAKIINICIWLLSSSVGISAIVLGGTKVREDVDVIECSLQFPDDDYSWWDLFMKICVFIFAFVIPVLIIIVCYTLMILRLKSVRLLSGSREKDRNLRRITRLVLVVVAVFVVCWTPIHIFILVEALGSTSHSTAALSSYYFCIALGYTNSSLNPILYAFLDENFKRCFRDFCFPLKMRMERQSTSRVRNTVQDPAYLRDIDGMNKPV
T1 sequence (Q5BJF2 whole entry): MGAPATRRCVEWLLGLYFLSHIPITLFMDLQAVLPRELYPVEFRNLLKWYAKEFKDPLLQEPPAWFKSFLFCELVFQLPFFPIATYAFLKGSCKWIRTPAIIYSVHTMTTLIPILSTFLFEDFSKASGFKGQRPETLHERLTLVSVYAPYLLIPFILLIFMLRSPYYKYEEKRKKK
Sequence of NMDAR 1A/2B (Q13224 27-1484, other chains not shown): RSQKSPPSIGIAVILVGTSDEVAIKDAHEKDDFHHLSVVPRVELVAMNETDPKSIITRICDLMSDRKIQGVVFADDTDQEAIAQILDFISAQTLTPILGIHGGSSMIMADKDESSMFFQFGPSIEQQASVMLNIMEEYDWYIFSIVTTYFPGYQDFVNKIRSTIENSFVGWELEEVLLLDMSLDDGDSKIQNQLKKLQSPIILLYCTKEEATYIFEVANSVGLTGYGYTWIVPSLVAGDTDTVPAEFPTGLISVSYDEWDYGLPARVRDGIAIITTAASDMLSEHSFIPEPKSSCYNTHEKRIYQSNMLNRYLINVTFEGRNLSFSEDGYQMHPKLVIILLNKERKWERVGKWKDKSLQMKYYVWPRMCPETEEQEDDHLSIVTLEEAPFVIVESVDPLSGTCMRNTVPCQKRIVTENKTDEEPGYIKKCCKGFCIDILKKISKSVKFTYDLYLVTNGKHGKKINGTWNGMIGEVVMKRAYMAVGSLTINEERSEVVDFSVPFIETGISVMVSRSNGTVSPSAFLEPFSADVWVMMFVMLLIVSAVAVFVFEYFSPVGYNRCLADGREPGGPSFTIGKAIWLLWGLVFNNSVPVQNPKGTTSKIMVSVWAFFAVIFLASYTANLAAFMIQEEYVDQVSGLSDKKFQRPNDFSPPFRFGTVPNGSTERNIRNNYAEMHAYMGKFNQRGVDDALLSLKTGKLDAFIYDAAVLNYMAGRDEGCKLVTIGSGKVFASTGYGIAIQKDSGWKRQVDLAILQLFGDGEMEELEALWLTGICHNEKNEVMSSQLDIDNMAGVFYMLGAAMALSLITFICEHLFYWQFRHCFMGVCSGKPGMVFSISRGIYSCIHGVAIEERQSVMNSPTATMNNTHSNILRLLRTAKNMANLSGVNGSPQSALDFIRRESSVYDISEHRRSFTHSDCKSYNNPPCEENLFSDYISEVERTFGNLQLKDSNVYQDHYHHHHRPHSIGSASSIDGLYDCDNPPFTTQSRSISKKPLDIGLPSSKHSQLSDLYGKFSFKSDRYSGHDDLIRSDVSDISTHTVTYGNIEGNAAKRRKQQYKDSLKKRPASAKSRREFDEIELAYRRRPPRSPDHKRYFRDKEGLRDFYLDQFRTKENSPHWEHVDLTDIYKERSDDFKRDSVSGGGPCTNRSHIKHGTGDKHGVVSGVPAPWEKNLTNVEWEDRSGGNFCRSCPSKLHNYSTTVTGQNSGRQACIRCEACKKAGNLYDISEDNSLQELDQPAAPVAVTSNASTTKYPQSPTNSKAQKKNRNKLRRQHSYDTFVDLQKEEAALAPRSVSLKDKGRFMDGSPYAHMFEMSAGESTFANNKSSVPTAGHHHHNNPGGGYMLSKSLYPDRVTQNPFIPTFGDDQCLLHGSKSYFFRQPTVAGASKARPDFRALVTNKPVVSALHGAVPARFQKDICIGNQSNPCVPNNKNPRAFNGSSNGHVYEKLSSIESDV
T2 sequence (P14416 whole entry): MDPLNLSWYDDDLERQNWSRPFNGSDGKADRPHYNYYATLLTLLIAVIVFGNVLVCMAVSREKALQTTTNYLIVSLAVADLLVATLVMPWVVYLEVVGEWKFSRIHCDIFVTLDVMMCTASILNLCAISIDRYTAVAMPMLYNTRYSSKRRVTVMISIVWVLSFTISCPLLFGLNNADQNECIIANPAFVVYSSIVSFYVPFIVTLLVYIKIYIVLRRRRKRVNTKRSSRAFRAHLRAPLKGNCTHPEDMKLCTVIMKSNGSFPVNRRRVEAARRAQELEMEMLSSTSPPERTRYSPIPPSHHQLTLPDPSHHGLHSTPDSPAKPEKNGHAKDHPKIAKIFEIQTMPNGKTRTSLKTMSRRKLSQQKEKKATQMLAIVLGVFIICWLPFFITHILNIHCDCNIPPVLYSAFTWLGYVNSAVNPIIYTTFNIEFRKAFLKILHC
Sequence of Opiate μ (P35372 whole entry): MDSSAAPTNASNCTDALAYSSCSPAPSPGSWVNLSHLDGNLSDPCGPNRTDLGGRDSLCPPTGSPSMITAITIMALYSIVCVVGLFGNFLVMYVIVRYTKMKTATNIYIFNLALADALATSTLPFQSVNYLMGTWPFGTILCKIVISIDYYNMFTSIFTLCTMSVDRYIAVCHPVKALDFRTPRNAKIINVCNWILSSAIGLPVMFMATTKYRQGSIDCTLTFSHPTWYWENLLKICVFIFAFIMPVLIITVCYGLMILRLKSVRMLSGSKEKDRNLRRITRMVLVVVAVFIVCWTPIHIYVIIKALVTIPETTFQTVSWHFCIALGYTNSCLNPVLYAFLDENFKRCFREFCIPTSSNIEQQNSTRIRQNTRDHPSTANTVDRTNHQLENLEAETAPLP

On to `CNC1(c2ccccc2Cl)CCCCC1=O` (racemic) [Ketamine, (R,S)-ketamine], for which the “Binding to sigma2 receptors (in words)” value on Sigma 2 [1] is recorded as “binds sigma2 receptors at mM concentrations”. Also, the Improvement of survival with Mecp2-null mice (8 mg/kg IP every day for 40 days (total 320 mg/kg), at 80 days post natal) is on record as 50%. The “Efficacy of treatment (in words)” value in the assay with Mecp2-null mice (8 mg/kg/day ip from day 15 to day 55 (320 mg/kg total)) was “some efficacy”; in the assay on Mecp2-null mice (8 mg/kg/day ip from day 30 to day 55 (200 mg/kg total)), “not effective”. Besides, in the assay with Mecp2-null mice (after treatment with 320 mg/kg of ketamine, published data), the Survival was 50%. On DRD2L [2], the “Affinity for dopamine 2 receptors (in words)” value is given as “not shown any affinity”.

`NC1(c2ccccc2Cl)CCCCC1=O` (racemic) [NorKetamine, (R,S)-Norketamine]: the IC50 was found to be 6.96 µM on NMDAR 1A/2B (IC50, NMDAR 1A/2B antagonist assay, FIG. 15A); 6.9 µM against NMDAR 1A/2B (NMDAR 1A/2B Ion channel blocker, Table 5); 246 µM on Sigma 2 [4]; 667 µM at Opiate k. For the same molecule, the “Binding to Dopamine 2 receptors (in words)” value at DRD2L [3] is listed as “does not appear to bind”. The molecule further displayed an inhibition constant Ki on Opiate k of 381 µM. The “Ki, Opioid μ receptors” value at Opiate μ is given as “does not bind”.

The IC50 is the concentration that gives 50% inhibition. Broadly, the Ki is the equilibrium dissociation constant of an inhibitor or competing ligand from its target. Low values mean a stronger hold on the target, high ones a looser hold on the target.
